Experimental findings from US20250099464A1, “PHARMACEUTICAL COMPOSITIONS” (ViiV Healthcare UK (No.3) Limited, priority 2023, published 2025) are described below.

This series can be described thus: Cabotegravir population pharmacokinetic (PopPK) model. More on the design: species or system human. The method, then:
A cabotegravir population pharmacokinetic (PopPK) model was built based on PK data following cabotegravir (CAB) 200 mg/mL intramuscular (IM) injections collected in 16 historical studies (Population pharmacokinetics of cabotegravir following administration of oral tablet and long-acting intramuscular injection in adult HIV-1-infected and uninfected subjects. Han K, Baker M, Lovern M, Paul P, Xiong Y, Patel P, Moore K P, Seal C S, Cutrell A G, D'Amico R D, Benn P D, Landovitz R J, Marzinke M A, Spreen W R, Ford S L. Br J Clin Pharmacol. 2022 October; 88(10):4607-4622. doi: 10.1111/bcp.15439. Epub 2022 Jul. 4. PMID: 35695476) and updated based on PK data from 19 studies: LAI116585, LAI117010, LAI117011, LAI117020, 201741, 201479, 201480, 205696, LAI116482 (LATTE), LAI115428, LAI116815, 200056 (LATTE-2), 201120 (ECLAIR), 201103 (HPTN077), 201584 (FLAIR), 201585 (ATLAS), 207966 (ATLAS-2M), 201738 (HPTN 083) and 201739 (HPTN 084). A total of 34,850 CAB plasma concentrations collected at various time points from 2,694 participants were used to build this PopPK model. […] The simulations were performed as follows: covariates including body weight, BMI and smoking status were resampled 5000 times from the distribution of these covariates for males and females, generating 5000 virtual male subjects and 5000 virtual female subjects. Individual PK parameters of the virtual subjects were calculated using subject-specific covariates and using the population parameter estimates, subject-specific NONMEM inter-individual errors (ETAs) sampled from the distributions that are decided by the estimated variance-covariate matrix of between-subject variability from the final population PK model. Concentration-versus-time profiles of the virtual subjects were calculated using the individual PK parameters. Residual variability (EPS) was included in the simulation. Median and 10th and 90th percentiles (80% prediction interval) of the simulated concentration-versus-time profiles of the virtual males and females were calculated. […]

Regarding `C[C@H]1CO[C@@H]2Cn3cc(C(=O)NCc4ccc(F)cc4F)c(=O)c(O)c3C(=O)N12` [cabotegravir, (3S,11aR)—N-((2,4-difluorophenyl)methyl)-6-hydroxy-3-methyl-5,7-dioxo-2,3,5,11,11a-hexahydro(1,3)oxazolo(3,2-a)pyrido(1,2-d)pyrazine-8-carboxamide], the “KA2 in relation to BMI” value is “decreased with increasing BMI” and the “KA2 in relation to needle length” value was “lower with longer needle length”. Where the note is “CAB 200 mg/mL IM injections”, the “Long-acting intramuscular gluteal absorption rate constant (KA2), lower in people assigned female at birth than people assigned male at birth” value was 46.5%.
